Data on 82 compounds can be found in PubChem BioAssay AID1645863 (Buhrlage Lab, Dana-Farber Cancer Institute and Novartis …, 2021).

Activity calls are given as the source filed them. No rule for the calls is given here.

Usually IC50 stands for the concentration at which inhibition is half-maximal.

In this test the target is Ubiquitin carboxyl-terminal hydrolase 10 (Homo sapiens) (UniProt Q14694). In words: primary hit verification, biochemical, ubiquitin-specific protease 10 deubiquitylase inhibitors, concentration-effect titration (AID 1645863).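 Also: potency values describe inhibition of USP10 cleavage of a fluorogenic ubiquitin substrate.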 To be noted: USP10 deubiquitinase enzymatic assay.
Sequence of Ubiquitin carboxyl-terminal hydrolase 10 (Homo sapiens) (Q14694 whole entry, looked up): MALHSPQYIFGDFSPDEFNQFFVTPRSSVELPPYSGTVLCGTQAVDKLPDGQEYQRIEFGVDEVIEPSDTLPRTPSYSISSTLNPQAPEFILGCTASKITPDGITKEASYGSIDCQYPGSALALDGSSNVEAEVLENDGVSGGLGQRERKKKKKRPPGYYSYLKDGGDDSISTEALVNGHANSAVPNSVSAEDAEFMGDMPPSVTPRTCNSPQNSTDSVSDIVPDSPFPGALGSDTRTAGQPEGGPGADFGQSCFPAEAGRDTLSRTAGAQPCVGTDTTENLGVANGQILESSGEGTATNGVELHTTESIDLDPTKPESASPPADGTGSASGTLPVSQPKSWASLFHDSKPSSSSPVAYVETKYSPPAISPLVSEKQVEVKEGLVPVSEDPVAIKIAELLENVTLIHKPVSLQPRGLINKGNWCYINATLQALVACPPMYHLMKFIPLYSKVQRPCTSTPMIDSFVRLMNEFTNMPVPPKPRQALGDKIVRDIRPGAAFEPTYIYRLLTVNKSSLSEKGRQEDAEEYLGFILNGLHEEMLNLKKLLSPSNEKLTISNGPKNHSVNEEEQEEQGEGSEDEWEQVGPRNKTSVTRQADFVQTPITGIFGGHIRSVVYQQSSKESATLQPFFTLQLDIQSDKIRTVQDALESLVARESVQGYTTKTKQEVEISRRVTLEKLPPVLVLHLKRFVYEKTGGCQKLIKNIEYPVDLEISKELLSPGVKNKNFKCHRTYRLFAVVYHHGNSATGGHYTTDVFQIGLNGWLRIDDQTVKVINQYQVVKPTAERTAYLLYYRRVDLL
In the case of `CN1CCC(N2CCN(C(=O)C3CCCN(c4cnc5nccnc5c4)C3)CC2)CC1` (configuration not stated), the IC50 is > 40 µM (inactive). As for `Cn1c2ccccc2c(=O)c2c(=O)n(Cc3ccco3)c(-c3ccccc3F)nc21`, the concentration for half-maximal inhibition (IC50) was 8.37 µM. Consider `c1ccc(CNc2ccc(-c3ccccc3)nn2)cc1`, for which the IC50 was > 40 µM (inactive). Then `CN(C)c1ccc(CNC(=O)c2nnc(C(=O)Nc3ccccc3)s2)cc1`, with > 40 µM (inactive); and `COc1ccc(C(=O)NC(Cc2ccccc2)c2nc3ccccc3[nH]2)c(OC)c1` (configuration not stated), with > 40 µM (inactive).

In the case of `O=C(Nc1ccccc1C(=O)NC1CCSC1)c1ccc([N+](=O)[O-])cc1` (configuration not stated), the IC50 is > 40 µM (inactive). Then `c1cncc(-c2cnc3sc(NCc4ccc5c(c4)OCO5)nn23)c1`, with > 40 µM (inactive); and `O=C(COc1ccc(Cl)cc1)Nc1noc(-c2ccccc2)n1`, with 32.5 µM. In the case of `Cc1ccc(N2CC(c3nnc(NC(=O)CCc4ccccc4)s3)CC2=O)cc1` (configuration not stated) it was > 40 µM (inactive); in that of `O=[N+]([O-])c1ccc2c(c1)nc1n2CCN(Cc2ccco2)C1`, > 40 µM (inactive).

Turning to `CC1Oc2cc3c(-c4c(O)cc(O)c5c(O)c6c(cc45)OC(C)C(C)C6=O)c(O)cc(O)c3c(O)c2C(=O)C1C` (configuration not stated), the IC50 is > 40 µM (inactive). In the case of `Cc1cc(C(=O)NC2(O)C(=O)c3ccccc3C2=O)n(C)n1` it was 14.2 µM. In the case of `Cc1nc(-c2ccccc2)sc1-c1nc(-c2ccccc2)ncc1S(=O)(=O)c1ccccc1` it was > 40 µM (inactive). Then `CC1CCc2c(sc(NC(=O)c3cccc(S(C)(=O)=O)c3)c2C(N)=O)C1` (configuration not stated), with > 40 µM (inactive); and `Cn1c(=O)c(-c2ccc(C(=O)NCc3cccc(Cl)c3)cc2)nc2cccnc21`, with > 40 µM (inactive); and `COCCCNC(=O)c1ccc(Cn2c(=O)c3ccccc3n(CC(=O)Nc3ccc4c(c3)OCCO4)c2=O)cc1`, with > 40 µM (inactive). Take `Cc1ccc(C)c(S(=O)(=O)N2CCN(c3ccc4nnc(-c5ccco5)n4n3)CC2)c1`: the IC50 was > 40 µM (inactive). In the case of `COc1ccc2nc(N3CC(C(=O)Nc4ccc(C(N)=O)cc4)C3)sc2c1` it was > 40 µM (inactive); in that of `Cc1cc(C(=O)N2CCOCC2)c(C)n1-c1ccc(O)cc1`, > 40 µM (inactive).

In the case of `Cc1ccccc1-c1nc(-c2cn(CC(=O)Nc3ccccc3)cn2)no1`, the IC50 was > 40 µM (inactive). In the case of `Cn1c(CCNC(=O)c2[nH]nc3c2CCc2ccccc2-3)nc2ccccc21` it was 36.1 µM. On to `CSc1ncccc1C(=O)NC1(O)C(=O)c2ccccc2C1=O`, for which the IC50 is 9.86 µM. Then `Cc1nc2c(nnn2C[C@H]2CCCN2C(=O)c2ccc(F)cc2)c(=O)[nH]1`, with > 40 µM (inactive).

In the case of `N#Cc1ccc(NC(=O)Nc2cccn(Cc3ccccc3Br)c2=O)cc1`, the IC50 is > 40 µM (inactive). Turning to `COc1ccccc1-c1nc(-c2cn(-c3ccc(F)cc3)nn2)no1`, the IC50 is 15.6 µM. In the case of `CCC1OC(O)(C(C)C(O)C(C)C2OC(=O)/C(C)=C/C(C)=CC(C)C(O)C(C)C/C(C)=C/C=C/C2OC)CC(OC(=O)/C=C/C(=O)NC2=C(O)CCC2=O)C1C` (configuration not stated) it was 16.6 µM. `N#Cc1cccc(NC(=O)COC(=O)c2n[nH]c3ccccc23)c1`: the IC50 is 19.8 µM. On to `O=C(c1ccc2c(c1)OCO2)[C@@H]1[C@H](C(=O)OC(c2ccccc2)c2ccccc2)N2c3ccccc3C=CC2[C@@]12C(=O)Nc1ccccc12` (some centres not stated), for which the IC50 was > 40 µM (inactive). In the case of `Cc1ncc(-c2ccc3c(c2)OCO3)c(-c2nccs2)n1` it was > 40 µM (inactive).

Regarding `Cc1ccc2c(c1)N=C(c1ccc([N+](=O)[O-])cc1)CO2`, the IC50 is > 40 µM (inactive). Then `Cc1cc(=O)[nH]c(NC2CCN(S(=O)(=O)c3ccccc3C(F)(F)F)CC2)n1`, with > 40 µM (inactive). In the case of `O=C(Nc1ccccc1C(F)(F)F)c1cccc(S(=O)(=O)Nc2cc(C(F)(F)F)ccc2Cl)c1` it was > 40 µM (inactive); in that of `COc1ccc(NS(=O)(=O)c2cc(NC(=O)CC(=O)c3ccc([N+](=O)[O-])cc3)ccc2Cl)cc1`, 12.2 µM; in that of `O=C(Nc1ccc(-c2cn3ccsc3n2)cc1)c1ccc(Cl)c([N+](=O)[O-])c1`, 19.7 µM. In the case of `Cc1ccnc(Nc2nc(-c3ccccc3)c3cc(Cl)ccc3n2)n1` it was 14.7 µM; in that of `COc1cc(NS(=O)(=O)c2ccc(NC(=O)COc3ccc(C)cc3Br)cc2)nc(OC)n1`, 38.6 µM; in that of `Cc1ccc(C)c(Cn2cnc3c(nnn3-c3cccc(F)c3)c2=O)c1`, > 40 µM (inactive). As to `Cc1ccc(-n2nc(C)c3c2NC(=O)CC3C(=O)c2cc3ccccc3o2)cc1C` (configuration not stated), the IC50 was > 40 µM (inactive). Then `O=c1[nH]c(C2CCN(S(=O)(=O)c3ccc(S(=O)(=O)NC4CC4)cc3)CC2)nc2c1nnn2Cc1c(Cl)cccc1Cl`, with 27.5 µM. Then `COc1cc2c(=O)n(Cc3ccccc3)c(=O)n(CC(=O)N3CCCc4ccccc43)c2cc1OC`, with 12.7 µM; and `CS(=O)(=O)c1cccc(C(=O)Nc2sc3c(c2C(N)=O)CCCC3)c1`, with > 40 µM (inactive). Then `Cc1ccccc1NC(=O)N1CCC(CC(=O)N2CCCCC2)CC1`, with > 40 µM (inactive). Consider `CCc1nnc(-c2ccc3ccn(CC(=O)N4CCN(c5ccccn5)CC4)c3c2)o1`, for which the IC50 is > 40 µM (inactive). Then `COc1ccc(NC(=O)Cn2c(=O)n(CCCC(=O)NC3CCCC3)c(=O)c3cc(Cl)ccc32)c(OC)c1`, with 27.8 µM. In the case of `O=C(CSc1nc2cc(C(F)(F)F)ccc2s1)NCC(=O)c1ccccc1` it was 18.1 µM.

Turning to `O=C(Cc1ccc(-n2c(=O)c3ccccc3n(CC(=O)Nc3ccc(Cl)cc3Cl)c2=O)cc1)NCc1ccco1`, the IC50 is 11.3 µM. Then `COc1cccc(CNC(=O)c2nnn(CC(=O)Nc3cc(C)ccc3C)c2N)c1`, with 29.9 µM; and `Cc1cc(O)c(=O)cc2c1C[C@H]1CC(C)(C)/C=C/C[C@@]3(C)Oc4cc(=O)c(O)cc(C)c4C[C@@H]3C[C@H](O)[C@]1(C)O2`, with > 40 µM (inactive); and `Cc1cccc(N2CCN(C(=O)c3nc4cccnc4n(C)c3=O)CC2)c1C`, with > 40 µM (inactive).

Turning to `CCn1c(CNC(=O)c2cccc(C)c2)nnc1SCC(=O)N1CCc2ccccc21`, the IC50 was > 40 µM (inactive). In the case of `O=C(CNC(=O)c1ccc2nc(-n3cccc3)sc2c1)NCc1ccccc1` it was > 40 µM (inactive). Then `Cc1nnc(-c2cc(S(=O)(=O)N3CCN(c4ccc(F)cc4)CC3)c[nH]2)o1`, with > 40 µM (inactive); and `COc1ccc(-c2n[nH]n3c2nc(=O)c2ccc(C(=O)NCc4ccco4)cc23)cc1`, with > 40 µM (inactive); and `Cc1cccc(N2C(=O)/C(=C\c3cc(C#N)n(C)c3C)c3ccccc3C2=O)c1`, with 34.1 µM. In the case of `CCc1cc(=O)oc2c(C)c(OCC(=O)NCc3ccccn3)ccc12` it was > 40 µM (inactive); in that of `Cc1ccc2c(c1)c(=O)c(C(=O)c1ccccc1)cn2CC(=O)Nc1ccc2c(c1)OCO2`, > 40 µM (inactive). Take `O=c1c(O)c(-c2ccc(O)c(O)c2)oc2cc(O)cc(O)c12`: the IC50 is 1.16 µM. As for `Cc1cccc(NC(=O)Nc2ccc(C)n(CC(=O)Nc3ccc(C)c(C)c3)c2=O)c1`, the IC50 was > 40 µM (inactive). Then `CC(C)CC(NC(=O)c1ccc(Cl)cc1Cl)c1nc2ccccc2[nH]1` (configuration not stated), with > 40 µM (inactive); and `O=C(Nc1nc2c(ccc3ccccc32)s1)c1cccc(Br)c1`, with > 40 µM (inactive). As to `Cc1ccccc1-c1noc(-c2ccccc2OCC(=O)NC(C)C)n1`, the IC50 is > 40 µM (inactive). `O=c1c2ccccc2oc2nc(-c3cccs3)n(-c3ccccc3)c(=O)c12`: the IC50 was 16.6 µM.

As for `O=C(Cn1c(-c2nc(-c3cccc(F)c3)no2)cccc1=O)NCc1ccco1`, the IC50 is > 40 µM (inactive). In the case of `CC(C)=CCCC1(C)C=Cc2c(O)c3c(c(CC=C(C)C)c2O1)OC12C(=CC4CC1C(C)(C)OC2(C/C=C(/C)C(=O)O)C4=O)C3=O` (configuration not stated) it was 9.59 µM. In the case of `Cc1cccc(NC(=O)c2noc3c2CCc2sccc2-3)n1` it was > 40 µM (inactive); in that of `O=S(=O)(Nc1ccc(Oc2ncnc3cc(Cl)ccc23)nc1)c1ccc(S(=O)(=O)c2ccccc2)s1`, 29.5 µM; in that of `CC(NC(=O)c1ccccc1)c1nc2ccccc2n1CC(=O)Nc1ccc2c(c1)OCO2` (configuration not stated), 11.5 µM.

Regarding `Fc1cccc(Nc2ncnc3c2oc2ccccc23)c1`, the IC50 is > 40 µM (inactive).

For the compound `O=C(Cc1ccc(-n2c(=O)c3ccccc3n(Cc3cccc(F)c3)c2=O)cc1)NC1CCCC1`, the IC50 was > 40 µM (inactive).

For the compound `COCC(=O)N1CCC(n2c(C3CC3)nc3sc(C)c(C)c3c2=O)CC1`, the IC50 is > 40 µM (inactive). Take `COc1ccc(-c2nc(-c3cc4cc(OC)ccc4[nH]c3=O)no2)cc1`: the IC50 was > 40 µM (inactive). In the case of `COc1ccc(NC(=O)Cn2c(=O)n(CCC(=O)NCc3ccccc3)c(=O)c3sccc32)cc1Cl` it was > 40 µM (inactive).

For the compound `CCOc1ccccc1-c1cc(NC(=O)c2cc3ccc4cccnc4c3[nH]2)on1`, the IC50 was > 40 µM (inactive). Then `O=C(NC1CCCCCC1)c1cccc(S(=O)(=O)Nc2cc(C(F)(F)F)ccc2Cl)c1`, with 21.1 µM. Then `CCCCCCCCCCCCCCCc1cc(O)cc(O)c1C(=O)O`, with 19.3 µM; and `CCOc1ccc2c(c1)c(=O)c(C(=O)c1ccccc1)cn2CC(=O)Nc1ccccc1`, with > 40 µM (inactive). Turning to `COc1cccc(-c2cncc(C3CCN(S(=O)(=O)N(C)C)CC3)n2)c1`, the IC50 is > 40 µM (inactive). As to `CCC(=O)Nc1nc2cc(NC(=O)Nc3cc(C)cc(C)c3)ccc2s1`, the IC50 is > 40 µM (inactive). In the case of `COC(=O)c1ccc(NC(=O)c2ccc(COc3cc(Cl)ccc3Cl)cc2)cc1` it was > 40 µM (inactive); in that of `COc1ccc(NC(=O)c2cc(-c3cccnc3)n[nH]2)cc1Cl`, 28.5 µM. Turning to `CCc1cccc(NC(=O)Cc2nnc3ccc(-c4nc(C)no4)cn23)c1`, the IC50 was > 40 µM (inactive). In the case of `Cc1cc(-c2ccc(S(=O)(=O)NCc3ccc(Cl)cc3)s2)on1` it was > 40 µM (inactive).
